These results are taken from patent publication US7820623B2 (priority 2006, dated 2010).

The subject of data set [1] is thapsigargin-induced IL-2 production in human whole blood. Particulars: for IC50: read-out: Analogue Activity (IC50) WB/IL-2.
In data set [2] the test system is thapsigargin-induced IFN-g production in human whole blood. Format: cell-based. The note with it: for IC50: read-out: Analogue Activity (IC50) WB/IFNg.
In a further data set the target is T1, human Kv1.1 (HEK293) (Homo sapiens, UniProt Q09470).
T1 construct: expressed in transfected cells; host or cells: HEK293
T1 sequence (Q09470 whole entry): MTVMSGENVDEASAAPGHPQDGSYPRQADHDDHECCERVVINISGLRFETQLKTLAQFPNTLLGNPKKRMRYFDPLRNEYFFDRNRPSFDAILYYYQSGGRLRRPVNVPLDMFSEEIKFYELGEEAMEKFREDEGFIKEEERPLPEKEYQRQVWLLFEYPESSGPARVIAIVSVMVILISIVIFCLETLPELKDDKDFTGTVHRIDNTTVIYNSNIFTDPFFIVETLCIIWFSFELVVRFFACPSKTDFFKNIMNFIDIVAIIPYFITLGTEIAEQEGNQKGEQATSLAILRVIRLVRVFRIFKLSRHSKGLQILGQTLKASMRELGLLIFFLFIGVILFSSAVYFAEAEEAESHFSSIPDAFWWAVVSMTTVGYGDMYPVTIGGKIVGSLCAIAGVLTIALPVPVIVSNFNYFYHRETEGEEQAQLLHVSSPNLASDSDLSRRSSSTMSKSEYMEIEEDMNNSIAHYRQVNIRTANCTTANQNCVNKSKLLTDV
Kind of data set: cell-based.

Another data set addresses T2, human Kv1.3 (CHO) (Homo sapiens, UniProt P22001).
T2 construct: expressed in transfected cells
Kind of data set: cell-based. Format: cell-based.

In data set [3] the target is T3, human Kv1.3 (Homo sapiens, UniProt P22001). Put plainly: cell-based.
T3 sequence (P22001 whole entry): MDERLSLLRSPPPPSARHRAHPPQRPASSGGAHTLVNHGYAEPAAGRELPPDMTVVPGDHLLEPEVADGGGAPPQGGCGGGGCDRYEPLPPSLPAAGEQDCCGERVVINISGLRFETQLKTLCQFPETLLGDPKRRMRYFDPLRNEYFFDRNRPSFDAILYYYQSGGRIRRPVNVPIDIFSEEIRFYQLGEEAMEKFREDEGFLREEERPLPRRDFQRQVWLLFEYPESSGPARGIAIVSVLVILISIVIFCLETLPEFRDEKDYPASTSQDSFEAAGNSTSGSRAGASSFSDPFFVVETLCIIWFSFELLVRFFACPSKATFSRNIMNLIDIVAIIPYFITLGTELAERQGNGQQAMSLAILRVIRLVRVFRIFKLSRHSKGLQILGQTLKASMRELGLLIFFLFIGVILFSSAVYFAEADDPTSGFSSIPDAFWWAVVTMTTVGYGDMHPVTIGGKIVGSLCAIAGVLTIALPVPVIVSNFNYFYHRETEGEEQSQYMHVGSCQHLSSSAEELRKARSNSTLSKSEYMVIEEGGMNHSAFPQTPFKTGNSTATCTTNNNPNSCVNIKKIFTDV
For data set [4], the target named is T3, human Kv1.3. Format: cell-based. Also on record: expressed in transfected cells.
Where [5] appears, read: read-out: IC50 for block of the outward potassium current.

Where two headings read alike, the source gives them in different places. Bridge positions count the residues as written; N and C are the ends. Square brackets hold non-standard residues; d marks the D form. Peptide text beside a SMILES is read from it. 1Nal = N[C@@H](Cc1cccc2ccccc12)C(=O)O

T2 sequence (P22001 whole entry): as above

`CC[C@H](C)[C@@H]1NC(=O)[C@H](CCCCN)NC(=O)[C@@H](NC(=O)[C@H](CCCCN)NC(=O)[C@@H](NC(=O)[C@H](CC(N)=O)NC(=O)[C@@H](NC(=O)[C@@H](NC(=O)[C@@H](NC(=O)CN)C(C)C)[C@@H](C)CC)[C@@H](C)CC)C(C)C)CSSC[C@@H]2NC(=O)[C@H](CCCCN)NC(=O)CNC(=O)[C@H](Cc3ccccc3)NC(=O)[C@H](CCCNC(=N)N)NC(=O)[C@H](CCSC)NC(=O)CNC(=O)[C@H](Cc3cccc4ccccc34)NC(=O)[C@H](CCCCN)NC(=O)[C@H](CCCCN)NC(=O)[C@@H]3CSSC[C@@H](C(=O)N[C@H](C(=O)N4CCC[C@H]4C(=O)N[C@@H](CCCCN)C(=O)O)[C@@H](C)O)NC(=O)[C@H](Cc4c[nH]cn4)NC(=O)[C@H](CSSC[C@H](NC(=O)[C@H](CCC(N)=O)NC(=O)[C@H](CCCNC(=N)N)NC(=O)[C@H](CO)NC1=O)C(=O)N[C@@H](CC(C)C)C(=O)N[C@@H](CCC(=O)O)C(=O)N1CCC[C@H]1C(=O)N3)NC(=O)[C@H](CCCCN)NC(=O)CNC(=O)[C@H](CC(N)=O)NC(=O)[C@H](CCSC)NC2=O` [A21Nal] (H-GVIINVKCKISRQCLEPCKK[1Nal]GMRFGKCMNGKCHCTPK-OH; disulfide 8-28, 14-33, 18-35): the IC50 in data set [1] is 315 pM; in data set [2], 434 pM; on human Kv1.1 (HEK293) it was under 1.52 pM; against human Kv1.3 (CHO) it was 26.1 pM.
In the case of “Fc-L10-ShK[2-35]: human IgG1 Fc fused via 10 amino acid linker to ShK[2-35]”, in data set [1], the “stability in whole blood” value is listed as “stable in whole blood”, the “thapsigargin-induced IL-2 production in human whole blood” value is given as “suppressed” and the “times more potent than cyclosporine A in blocking IL-2 production (IC50)” value was “more than 200 times”. For the same compound, in data set [2], the “thapsigargin-induced IFN-g production in human whole blood” value is recorded as “suppressed”. Also, in the data set with human Kv1.3 [3] (setting [5]), the IC50 is 115 ± 18 pM.
For E. coli-derived Shk[1-35]-L-Fc, in the data set with human Kv1.3 (CHO) (read-out: Kv1.3 IC50 by IWQ), the IC50 worked out at 2400 pM.
On human Kv1.3 [3], `CC[C@H](C)[C@@H]1NC(=O)[C@@H](NC(=O)[C@@H](N)CO)CSSC[C@@H](C(=O)O)NC(=O)[C@H]([C@@H](C)O)NC(=O)CNC(=O)[C@@H]2CSSC[C@@H]3NC(=O)[C@H](CCC(N)=O)NC(=O)[C@H](Cc4ccccc4)NC(=O)[C@H](C)NC(=O)[C@H]([C@@H](C)O)NC(=O)[C@H](CSSC[C@H](NC(=O)[C@H](Cc4ccccc4)NC(=O)[C@H](CO)NC(=O)[C@H](CC(C)C)NC(=O)[C@H](CCCNC(=N)N)NC(=O)[C@H](Cc4ccc(O)cc4)NC(=O)[C@H](CCCCN)NC(=O)[C@H](CCSC)NC(=O)[C@H](CO)NC(=O)[C@H](Cc4c[nH]cn4)NC(=O)[C@H](CCCCN)NC3=O)C(=O)N[C@@H](CCCNC(=N)N)C(=O)N[C@@H](CCCCN)C(=O)N[C@@H]([C@@H](C)O)C(=O)N2)NC(=O)[C@H](CCCNC(=N)N)NC(=O)[C@H](CO)NC(=O)[C@H](CCCCN)NC(=O)[C@@H]2CCCN2C(=O)[C@H]([C@@H](C)CC)NC(=O)[C@H]([C@@H](C)O)NC(=O)[C@H](CC(=O)O)NC1=O` [ShK[2-35]] (H-SCIDTIPKSRCTAFQCKHSMKYRLSFCRKTCGTC-OH; disulfide 2-34, 11-27, 16-31) displayed an IC50 of 49 ± 5 pM.
Regarding E. coli-derived Fc-L-OSK1, the IC50 in the data set with human Kv1.3 [3] (read-out: Kv1.3 IC50 by WCVC) amounted to 3200 pM.
On to `CC[C@H](C)[C@@H]1NC(=O)[C@H](CCCCN)NC(=O)[C@@H](NC(=O)[C@H](CCCCN)NC(=O)[C@@H](NC(=O)[C@H](CC(N)=O)NC(=O)[C@@H](NC(=O)[C@@H](NC(=O)[C@@H](NC(=O)CN)C(C)C)[C@@H](C)CC)[C@@H](C)CC)C(C)C)CSSC[C@@H]2NC(=O)[C@H](CCCCN)NC(=O)CNC(=O)[C@H](Cc3ccccc3)NC(=O)[C@H](CCCNC(=N)N)NC(=O)[C@H](CCSC)NC(=O)CNC(=O)[C@H](C)NC(=O)[C@H](CCCCN)NC(=O)[C@H](CCCCN)NC(=O)[C@@H]3CSSC[C@@H](C(=O)N[C@H](C(=O)N4CCC[C@H]4C(=O)N[C@@H](CCCCN)C(=O)O)[C@@H](C)O)NC(=O)[C@H](Cc4c[nH]cn4)NC(=O)[C@H](CSSC[C@H](NC(=O)[C@H](CCC(N)=O)NC(=O)[C@H](CCCNC(=N)N)NC(=O)[C@H](CCC(=O)O)NC1=O)C(=O)N[C@@H](CC(C)C)C(=O)N[C@@H](CCC(=O)O)C(=O)N1CCC[C@H]1C(=O)N3)NC(=O)[C@H](CCCCN)NC(=O)CNC(=O)[C@H](CC(N)=O)NC(=O)[C@H](CCSC)NC2=O` [S11E] (H-GVIINVKCKIERQCLEPCKKAGMRFGKCMNGKCHCTPK-OH; disulfide 8-28, 14-33, 18-35), for which the IC50 at human Kv1.1 (HEK293) and against human Kv1.3 (CHO) was over 3330 pM each time.
Turning to “Fc-L5-ShK[2-35]: human IgG1 Fc fused via 5 amino acid linker to ShK[2-35]”, the IC50 with human Kv1.3 [3] (setting [5]) stood at 100 pM.
With E. coli-derived Fc-L-ShK[2-35], the figures for the IC50 in the data set with human Kv1.3 (CHO) (read-out: Kv1.3 IC50 by IWQ) and with human Kv1.3 [3] (read-out: Kv1.3 IC50 by WCVC) were 2800 pM and 1300 pM, respectively.
With `CC[C@H](C)[C@@H]1NC(=O)[C@H](CCCCN)NC(=O)[C@@H](NC(=O)[C@H](CCCCN)NC(=O)[C@@H](NC(=O)[C@H](CC(N)=O)NC(=O)[C@@H](NC(=O)[C@@H](NC(=O)[C@@H](NC(=O)CN)C(C)C)[C@@H](C)CC)[C@@H](C)CC)C(C)C)CSSC[C@@H]2NC(=O)[C@H](CCCCN)NC(=O)CNC(=O)[C@H](Cc3ccccc3)NC(=O)[C@H](CCCNC(=N)N)NC(=O)[C@H](CCSC)NC(=O)CNC(=O)[C@H](C)NC(=O)[C@H](CCCCN)NC(=O)[C@H](CCCCN)NC(=O)[C@@H]3CSSC[C@@H](C(=O)N[C@H](C(=O)N4CCC[C@H]4C(=O)N[C@@H](CCCCN)C(=O)O)[C@@H](C)O)NC(=O)[C@H](Cc4c[nH]cn4)NC(=O)[C@H](CSSC[C@H](NC(=O)[C@H](CCC(N)=O)NC(=O)[C@H](CCCNC(=N)N)NC(=O)[C@H](CO)NC1=O)C(=O)N[C@@H](CC(C)C)C(=O)N[C@@H](CCC(=O)O)C(=O)N1CCC[C@H]1C(=O)N3)NC(=O)[C@H](CCCCN)NC(=O)CNC(=O)[C@H](CC(N)=O)NC(=O)[C@H](C)NC2=O` [OSK1[Ala-29]] (H-GVIINVKCKISRQCLEPCKKAGMRFGKCANGKCHCTPK-OH; disulfide 8-28, 14-33, 18-35), the “potency relative to cyclosporin A in blocking the cytokine response” value in data set [1] was “several orders of magnitude more potent”. Also, the IC50 at human Kv1.3 [4] (read-out: IC50 on CHO/Kv1.3) was 33 pM. In addition, at human Kv1.3 (CHO), the “inhibition of Kv1.3 current and selectivity over Kv1.1 by IonWorks” value is “potent inhibition of the Kv1.3 current and improved selectivity over Kv1.1”.
Consider `CC[C@H](C)[C@@H]1NC(=O)[C@H](CCCCN)NC(=O)[C@@H](NC(=O)[C@H](CCCCN)NC(=O)[C@@H](NC(=O)[C@H](CC(N)=O)NC(=O)[C@@H](NC(=O)[C@@H](NC(=O)[C@@H](NC(=O)CN)C(C)C)[C@@H](C)CC)[C@@H](C)CC)C(C)C)CSSC[C@@H]2NC(=O)[C@H](CCCCN)NC(=O)CNC(=O)[C@H](Cc3ccccc3)NC(=O)[C@H](CCCNC(=N)N)NC(=O)[C@H](CCSC)NC(=O)CNC(=O)[C@H](C)NC(=O)[C@H](CCCCN)NC(=O)[C@H](CCCCN)NC(=O)[C@@H]3CSSC[C@@H](C(=O)N[C@H](C(=O)N4CCC[C@H]4C(=O)N[C@@H](CCCCN)C(=O)O)[C@@H](C)O)NC(=O)[C@H](Cc4c[nH]cn4)NC(=O)[C@H](CSSC[C@H](NC(=O)[C@H](CCC(N)=O)NC(=O)[C@H](CCCNC(=N)N)NC(=O)[C@H](CO)NC1=O)C(=O)N[C@@H](CC(C)C)C(=O)N[C@@H](CCC(=O)O)C(=O)N1CCC[C@H]1C(=O)N3)NC(=O)[C@H](CCCCN)NC(=O)CNC(=O)[C@H](Cc1cccc3ccccc13)NC(=O)[C@H](CCSC)NC2=O` [N30Nal] (H-GVIINVKCKISRQCLEPCKKAGMRFGKCM[1Nal]GKCHCTPK-OH; disulfide 8-28, 14-33, 18-35), for which the figures for the IC50 (in data set [2]; at human Kv1.3 (CHO)) were 37000 pM and over 3330 pM, respectively.
For E. coli-derived ShK[2-35]-L-Fc, the IC50 in the data set with human Kv1.3 (CHO) (read-out: Kv1.3 IC50 by IWQ) was 4900 pM.
“Fc-L-KTX1: Fc-linker fusion of Kaliotoxin1 (KTX1)”: in the data set with human Kv1.3 [3], the “block of human Kv1.3 current” value is recorded as “blocked the human Kv1.3 current in a dose-dependent fashion”.
Regarding E. coli-derived Fc-L-ShK[1-35], the IC50 with human Kv1.3 [3] (read-out: Kv1.3 IC50 by WCVC) is 1400 pM.
In the case of `CC[C@H](C)[C@@H]1NC(=O)[C@H](CCCCN)NC(=O)[C@@H](NC(=O)[C@H](CCCCN)NC(=O)[C@@H](NC(=O)[C@H](CC(N)=O)NC(=O)[C@@H](NC(=O)[C@@H](NC(=O)[C@@H](NC(=O)CN)C(C)C)[C@@H](C)CC)[C@@H](C)CC)C(C)C)CSSC[C@@H]2NC(=O)[C@H](CCCCN)NC(=O)CNC(=O)[C@H](Cc3ccccc3)NC(=O)[C@H](CCCNC(=N)N)NC(=O)[C@H](CCSC)NC(=O)CNC(=O)[C@H](C)NC(=O)[C@H](CCCCN)NC(=O)[C@H](CCCCN)NC(=O)[C@@H]3CSSC[C@@H](C(=O)N[C@H](C(=O)N4CCC[C@H]4C(=O)N[C@@H](CCCCN)C(=O)O)[C@@H](C)O)NC(=O)[C@H](Cc4c[nH]cn4)NC(=O)[C@H](CSSC[C@H](NC(=O)[C@H](CCC(N)=O)NC(=O)[C@H](C)NC(=O)[C@H](CO)NC1=O)C(=O)N[C@@H](CC(C)C)C(=O)N[C@@H](CCC(=O)O)C(=O)N1CCC[C@H]1C(=O)N3)NC(=O)[C@H](CCCCN)NC(=O)CNC(=O)[C@H](CC(N)=O)NC(=O)[C@H](CCSC)NC2=O` [R12A] (H-GVIINVKCKISAQCLEPCKKAGMRFGKCMNGKCHCTPK-OH; disulfide 8-28, 14-33, 18-35), the IC50 worked out at 123 pM in data set [1] and 155 pM in data set [2]. Further, at human Kv1.3 [4], the “Kv1.3 Selectivity (= Kv1.1/Kv.3 IC50)” value is on record as 17.
